Key:
[1] = system: sensitized rabbit leukocytes; experiment: Inhibition of histamine release from sensitized rabbit leukocytes (in vitro); type: cell-based; settings: for IC50: Oryctolagus cuniculus, Leukocyte, ragweed-sensitized rabbit leukocytes, ragweed antigen, with S.E.M., read-out: ED50 + S.E.M. (molar concentration required to give 50% inhibition of histamine release); for Relative in vitro Inhibition of Histamine Release: relative to chlorphenesin = 1
Method: The procedure published by L. M. Lichtenstein and A. G. Osler, J. EXPTL. MEDICINE, 120:507-530, 1964, for the determination of histamine from human leukocytes, was used to measure histamine release from sensitized rabbit leukocytes. Forty-five ml of blood, drawn by cardiac puncture from ragweed-sensitized rabbits with a plastic syringe containing 250 units of heparin in 5 ml of physiological saline solution, was used. Measurements were made of the total amount of histamine in the leukocytes, the amount of histamine released with the specific antigen (ragweed), the amount of histamine released spontaneously (cell blanks), and the amount of histamine released in the presence of various concratrations of drugs under test.
Appropriate controls for buffer antigen and drugs were included and an internal histamine standard curve was established with each experiment. Inhibition of histamine release was computed from the amount of histamine released by the ragweed antigen in the presence and absence of the drug, i.e., the difference between the quantity of histamine released spontaneously and the amount released by antigen.

[2] = system: ragweed-sensitized rabbits; experiment: Inhibition of histamine release after oral administration to ragweed-sensitized rabbits (in vivo); settings: 100 mg/kg oral, rabbit, 50 μg antigen N per ml
Method: Five ml of blood was drawn by cardiac puncture from a ragweed-sensitized rabbit to ascertain the basic histamine content of the blood. The amount of histamine released by the addition of 50 μg of antigen N per ml of the assay system was determined. The rabbit was then treated orally with 100 mg/kg of drug using a catheter. One and 5 hr following administration of drug, 5 ml of blood was withdrawn and assayed for histamine by the spectrofluorometric method described by P. A. Shore, A. Burkhalter and V. H. Cohn, Jr., J. PHARMACOL. and EXPTL. THERAP., 127:182, 1959. The percentage inhibition of histamine release was computed from the amount of histamine released before and at 1 and 5 hr following administration of drug.

human leukocytes = settings: reported by Lichtenstein and Adkinson, J. Immunology 103:866, 1969; cited from earlier work

## CC(=O)OCCCCSc1ccc(Cl)cc1 [Compound 3, 4-(p-Chlorophenylthio)butyl acetate]
[1]
  IC50: 6.3 µM
  Relative in vitro Inhibition of Histamine Release: 52

## O=C(O)CSc1ccc(Cl)cc1 [Compound 2, 2-(p-Chlorophenylthio)acetic acid]
[1]
  IC50: 44 µM
  Relative in vitro Inhibition of Histamine Release: 8

## O=C(O)CCCSc1ccc(Cl)cc1 [Compound 1, Sodium 4-(p-Chlorophenylthio)butyrate]
[2]; 5 hrs after drug
  percentage inhibition of histamine release: 10-15%
[2]; one hour after drug
  percentage inhibition of histamine release: 30-40%
[1]
  IC50: 6 µM
  Relative in vitro Inhibition of Histamine Release: 55

## COCCCCSc1ccc(Cl)cc1 [Compound 4, 4-(p-Chlorophenylthio)butyl methyl ether]
[1]
  IC50: 28 µM
  Relative in vitro Inhibition of Histamine Release: 12

## OCC(O)COc1ccc(Cl)cc1 (stereo not shown) [chlorphenesin, 3-p-chlorophenoxy-1,2-propanediol, reference compound]
Human leukocytes
  inhibition of histamine release from human leukocytes: inhibit histamine release from human leukocytes
[1]
  IC50: 330 µM
  Relative in vitro Inhibition of Histamine Release: 1

From US4124723A, “Method for suppressing histamine release” (Carter-Wallace, Inc., priority 1977, dated 1978)
